Source: patent US20230172923A1, “METHODS OF TREATING CYTOKINE-RELATED ADVERSE EVENTS” (BRISTOL-MYERS SQUIBB COMPANY, priority 2020, published 2023)

Tested on: IL-6
Test: CC-93269-induced IL-6 secretion, co-culture of PBMCs and H929 multiple myeloma cells (MSD)
Assay type: cell-based, human
Conditions: 1 nM Compound 1 pre-treatment overnight, washed out; two donors
Procedure: Fresh PBMCs were isolated from healthy volunteers, the percentage of CD3+ T-cells (total) was quantified by flow cytometry, and the PBMCs were treated with 1 nM Compound 1 (CC-92480) or control DMSO overnight. The next morning, target H929 cells were added to the wells at a ratio of 5:1, T-cells to target cells, followed by addition of CC-93269 at indicated concentrations. At 6-, 24- and 48-hours post-incubation, the cell culture was collected and levels of IL-6 in the supernatant were assessed using an MSD assay.
Fresh PBMCs were isolated from the blood (buffy coat) of human volunteers by Ficoll based cell separation. The percentage of CD3+ T-cells (total) in the PBMCs was quantified by flow cytometry. The isolated PBMCs were seeded in 12 well plates at a concentration of 1.5×10^6 cells/ml and treated with 1 nM Compound 1 (CC-92480) or control DMSO overnight (~17 hours). After overnight incubation, the cells were washed to remove CC-92480, before target H929 cells were added to the wells at a ratio of 5:1, T-cells to target cells. […]
The co-culture was then incubated with CC-93269 at various concentrations. At 6, 24 and 48 hours post-incubation, the cell culture media was collected from all samples, spun down at 300 g for 5 minutes to remove cells and the supernatant was subjected to cytokine analysis to quantify secreted levels of IL-6 using an MSD assay. […]

With `N#Cc1ccc(N2CCN(Cc3ccc(COc4cccc5c4CN(C4CCC(=O)NC4=O)C5=O)cc3)CC2)c(F)c1` (stereo not drawn) [Compound 1, 4-(4-(4-(((2-(2,6-dioxopiperidin-3-yl)-1-oxoisoindolin-4-yl)oxy)methyl)benzyl)piperazin-l-yl)-3-fluorobenzonitrile] the “secretion of IL-6 associated with CC-93269 activity, PBMCs + multiple myeloma cells (H929)” value was “diminished/attenuated”.
